Where only a bound is given, the exact number is not on record here.

The assay has as its target T1, Human MTHFD2 (Homo sapiens, UniProt P13995).
T1 construct: residues 36-350 in Uniport ID P13995; His6 (N); made in house; host or cells: E. coli
T1 sequence (P13995 36-350): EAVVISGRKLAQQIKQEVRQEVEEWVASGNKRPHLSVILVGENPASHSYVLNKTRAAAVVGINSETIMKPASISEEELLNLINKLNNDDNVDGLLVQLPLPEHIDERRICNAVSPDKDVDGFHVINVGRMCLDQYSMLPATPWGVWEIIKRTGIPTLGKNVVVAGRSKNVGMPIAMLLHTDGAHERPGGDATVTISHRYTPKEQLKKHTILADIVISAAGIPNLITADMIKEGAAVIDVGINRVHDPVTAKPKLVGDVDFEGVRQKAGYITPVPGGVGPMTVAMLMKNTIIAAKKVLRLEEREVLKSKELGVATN
The assay can be described thus: MTHFD2 Activity Assay (dehydrogenase activity, diaphorase/resazurin coupled fluorescence). The conditions noted are these: inhibitory activity (IC50 and/or binding constant); 0.2 nM MTHFD2, 11 concentrations. The format is biochemical. The gist of the method:
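Steps: compound + 0.2 nM enzyme, 15 min, pH 8.0 Hepes buffer; add 70 μM CH2-THF, 1 mM NAD+, 100 μM resazurin, diaphorase; 30 min; quench with EDTA; read fluorescence. Data normalized to DMSO (100%) and no-enzyme (0%) wells.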
In general terms: The colour change of resazurin is a common sign of viable cells or microbes.
One may read the IC50 as the concentration needed to halve the response being measured. A high value points to lower potency. Molecule `C[C@@H](N)c1nc2c(c(=O)n(Cc3cc4c(Cl)cccc4[nH]3)c(=O)n2C)n1C` (single isomer, unassigned) [Example 436, (R)-8-(1-aminoethyl)-14(4-chloro-1H-indol-2-yl)methyl)-3,7-dimethyl-1H-purine-2,6(3H,7H)-dione or (S)-8-(1-aminoethyl)-1-((4-chloro-1H-indol-2-yl)methyl)-3,7-dimethyl-1H-purine-2,6(3H,7H)-dione] had a 50% inhibitory concentration (IC50) of 10 to 1000 nM.
In the case of `Cn1c(N[C@@H]2CC[C@H](CO)C2)nc2c1c(=O)n(Cc1ccc(Cl)c(Cl)c1)c(=O)n2C` (stereo in doubt) [Example 275, 1-(3,4-dichlorobenzyl)-8-((1R,3S)-3-(hydroxymethyl)cyclopentylamino)-3,7-dimethyl-1H-purine-2,6(3H,7H)-dione], the concentration for half-maximal inhibition (IC50) fell in the range of 10 to 1000 nM.
Take `Cn1c(N[C@H]2CC[C@@H](CO)C2)nc2c1c(=O)n(Cc1cc3ccccc3[nH]1)c(=O)n2C` (stereo in doubt) [Example 317, 1-((1H-indol-2-yl)methyl)-8-((1S,3R)-3-(hydroxymethyl)cyclopentylamino)-3,7-dimethyl-1H-purine-2,6(3H,7H)-dione]: the IC50 is 10 to 1000 nM.
The figure for `Cn1c(NCCO)nc2c1c(=O)n(Cc1ccc(Cl)c(Cl)c1)c(=O)n2C` [Example 1, 1-(3,4-dichlorobenzyl)-8-((2-hydroxyethyl)amino)-3,7-dimethyl-1H-purine-2,6(3H,7H)-dione] is 1000 to 5000 nM; for `C[C@H](O)CNc1nc2c(c(=O)n(Cc3ccc(Cl)c(Cl)c3)c(=O)n2C)n1C` [Example 8, 1-[(3,4-dichlorophenyl)methyl]-8-{[(2S)-2-hydroxypropyl]amino}-3,7-dimethyl-2,3,6,7-tetrahydro-1H-purine-2,6-dione] it is 10 to 1000 nM.
On to `C[C@@H](O)CNc1nc2c(c(=O)n(Cc3ccc(Cl)c(Cl)c3)c(=O)n2C)n1C` [Example 9, 1-[(3,4-dichlorophenyl)methyl]-8-{[(2R)-2-hydroxypropyl]amino}-3,7-dimethyl-2,3,6,7-tetrahydro-1H-purine-2,6-dione], for which the half-inhibitory concentration (IC50) lay within 10 to 1000 nM.
Regarding `Cn1c(NC[C@@H](O)CO)nc2c1c(=O)n(Cc1ccc(Cl)c(Cl)c1)c(=O)n2C` [Example 13, 1-[(3,4-dichlorophenyl)methyl]-8-{[(2R)-2,3-dihydroxypropyl]amino}-3,7-dimethyl-2,3,6,7-tetrahydro-1H-purine-2,6-dione], the half-maximal inhibitory concentration (IC50) lay in the range of 10 to 1000 nM.
On to `Cn1c(NC[C@H](O)CO)nc2c1c(=O)n(Cc1ccc(Cl)c(Cl)c1)c(=O)n2C` [Example 14, 1-[(3,4-dichlorophenyl)methyl]-8-{[(2S)-2,3-dihydroxypropyl]amino}-3,7-dimethyl-2,3,6,7-tetrahydro-1H-purine-2,6-dione], for which the half-maximal inhibitory concentration (IC50) is 10 to 1000 nM.
In turn, `Cn1c(NC[C@@H](O)CO)nc2c1c(=O)n(Cc1ccc(Cl)cc1)c(=O)n2C` [Example 15, 1-[(4-chlorophenyl)methyl]-8-{[(2R)-2,3-dihydroxypropyl]amino}-3,7-dimethyl-2,3,6,7-tetrahydro-1H-purine-2,6-dione] displayed an IC50 of 5000 to 10000 nM.
The figure for `Cn1c(NC[C@H](O)CO)nc2c1c(=O)n(Cc1ccc(Cl)cc1)c(=O)n2C` [Example 16, 1-[(4-chlorophenyl)methyl]-8-{[(2S)-2,3-dihydroxypropyl]amino}-3,7-dimethyl-2,3,6,7-tetrahydro-1H-purine-2,6-dione] is over 10000 nM.
With `C[C@@H](O)CNc1nc2c(c(=O)n(Cc3ccc(Cl)cc3)c(=O)n2C)n1C` [Example 17, 1-[(4-chlorophenyl)methyl]-8-{[(2R)-2-hydroxypropyl]amino}-3,7-dimethyl-2,3,6,7-tetrahydro-1H-purine-2,6-dione], the IC50 is 5000 to 10000 nM.
`C[C@H](O)CNc1nc2c(c(=O)n(Cc3ccc(Cl)cc3)c(=O)n2C)n1C` [Example 18, 1-[(4-chlorophenyl)methyl]-8-{[(2S)-2-hydroxypropyl]amino}-3,7-dimethyl-2,3,6,7-tetrahydro-1H-purine-2,6-dione]: the IC50 was 5000 to 10000 nM.
Take `CNc1nc2c(c(=O)n(Cc3ccc(Cl)c(Cl)c3)c(=O)n2C)n1C` [Example 21, 1-[(3,4-dichlorophenyl)methyl]-3,7-dimethyl-8-(methylamino)-2,3,6,7-tetrahydro-1H-purine-2,6-dione]: the IC50 is 1000 to 5000 nM.
As to `CC(=O)NCCNc1nc2c(c(=O)n(Cc3ccc(Cl)c(Cl)c3)c(=O)n2C)n1C` [Example 22, N-[2-({1-[(3,4-dichlorophenyl)methyl]-3,7-dimethyl-2,6-dioxo-2,3,6,7-tetrahydro-1H-purin-8-yl}amino)ethyl]acetamide], the IC50 was 10 to 1000 nM.
Regarding `Cn1c(NCCCO)nc2c1c(=O)n(Cc1ccc(Cl)c(F)c1)c(=O)n2C` [Example 23, 1-[(4-chloro-3-fluorophenyl)methyl]-8-[(3-hydroxypropyl)amino]-3,7-dimethyl-2,3,6,7-tetrahydro-1H-purine-2,6-dione], the concentration for half-maximal inhibition (IC50) lay within 1000 to 5000 nM.
In turn, `C[C@@H](O)CNc1nc2c(c(=O)n(Cc3ccc(Cl)c(F)c3)c(=O)n2C)n1C` [Example 24, 1-[(4-chloro-3-fluorophenyl)methyl]-8-{[(2R)-2-hydroxypropyl]amino}-3,7-dimethyl-2,3,6,7-tetrahydro-1H-purine-2,6-dione] returned an IC50 of 5000 to 10000 nM.
`C[C@H](O)CNc1nc2c(c(=O)n(Cc3ccc(Cl)c(F)c3)c(=O)n2C)n1C` [Example 25, 1-[(4-chloro-3-fluorophenyl)methyl]-8-{[(2S)-2-hydroxypropyl]amino}-3,7-dimethyl-2,3,6,7-tetrahydro-1H-purine-2,6-dione] came in with an IC50 of 1000 to 5000 nM.
Consider `C[C@H](CCO)Nc1nc2c(c(=O)n(Cc3ccc(Cl)cc3)c(=O)n2C)n1C` [Example 26, 1-[(4-chlorophenyl)methyl]-8-{[(2R)-4-hydroxybutan-2-yl]amino}-3,7-dimethyl-2,3,6,7-tetrahydro-1H-purine-2,6-dione], for which the IC50 lay in the range of 1000 to 5000 nM.
As to `C[C@H](CCO)Nc1nc2c(c(=O)n(Cc3ccc(Cl)c(Cl)c3)c(=O)n2C)n1C` [Example 27, 1-[(3,4-dichlorophenyl)methyl]-8-{[(2R)-4-hydroxybutan-2-yl]amino}-3,7-dimethyl-2,3,6,7-tetrahydro-1H-purine-2,6-dione], the half-maximal inhibitory concentration (IC50) is 10 to 1000 nM.
`Cn1c(NCCCCO)nc2c1c(=O)n(Cc1ccc(Cl)c(Cl)c1)c(=O)n2C` [Example 28, 1-[(3,4-dichlorophenyl)methyl]-8-[(4-hydroxybutyl)amino]-3,7-dimethyl-2,3,6,7-tetrahydro-1H-purine-2,6-dione] displayed an IC50 of 10 to 1000 nM.
Regarding `Cn1c(NCCCO)nc2c1c(=O)n(Cc1ccc(F)c(F)c1)c(=O)n2C` [Example 29, 1-[(3,4-difluorophenyl)methyl]-8-[(3-hydroxypropyl)amino]-3,7-dimethyl-2,3,6,7-tetrahydro-1H-purine-2,6-dione], the 50% inhibitory concentration (IC50) was over 10000 nM.
Molecule `C[C@H](O)CNc1nc2c(c(=O)n(Cc3ccc(F)c(F)c3)c(=O)n2C)n1C` [Example 30, 1-[(3,4-difluorophenyl)methyl]-8-{[(2S)-2-hydroxypropyl]amino}-3,7-dimethyl-2,3,6,7-tetrahydro-1H-purine-2,6-dione] returned an IC50 of over 10000 nM.
Molecule `C[C@@H](CCO)Nc1nc2c(c(=O)n(Cc3ccc(Cl)cc3)c(=O)n2C)n1C` [Example 31, 1-[(4-chlorophenyl)methyl]-8-{[(2S)-4-hydroxybutan-2-yl]amino}-3,7-dimethyl-2,3,6,7-tetrahydro-1H-purine-2,6-dione] yielded an IC50 of 1000 to 5000 nM.
`C[C@@H](CCO)Nc1nc2c(c(=O)n(Cc3ccc(Cl)c(Cl)c3)c(=O)n2C)n1C` [Example 32, 1-[(3,4-dichlorophenyl)methyl]-8-{[(2S)-4-hydroxybutan-2-yl]amino}-3,7-dimethyl-2,3,6,7-tetrahydro-1H-purine-2,6-dione] displayed an IC50 of 10 to 1000 nM.
Take `Cn1c(NC2CCCC(O)C2)nc2c1c(=O)n(Cc1ccc(Cl)c(Cl)c1)c(=O)n2C` (centres unmarked) [Example 33, 1-[(3,4-dichlorophenyl)methyl]-8-[(3-hydroxycyclohexyl)amino]-3,7-dimethyl-2,3,6,7-tetrahydro-1H-purine-2,6-dione]: the half-inhibitory concentration (IC50) lay in the range of 10 to 1000 nM.
In turn, `COc1ccc(Cn2c(=O)c3c(nc(NC[C@H](C)O)n3C)n(C)c2=O)cc1` [Example 34, 8-{[(2S)-2-hydroxypropyl]amino}-1-[(4-methoxyphenyl)methyl]-3,7-dimethyl-2,3,6,7-tetrahydro-1H-purine-2,6-dione] had a concentration for half-maximal inhibition (IC50) of over 10000 nM.
The figure for `Cn1c(NC2CCNCC2)nc2c1c(=O)n(Cc1ccc(Cl)c(Cl)c1)c(=O)n2C` [Example 35, 1-[(3,4-dichlorophenyl)methyl]-3,7-dimethyl-8-[(piperidin-4-yl)amino]-2,3,6,7-tetrahydro-1H-purine-2,6-dione] is 1000 to 5000 nM; for `C[C@H](O)CNc1nc2c(c(=O)n(Cc3ccc(C(F)(F)F)cc3)c(=O)n2C)n1C` [Example 36, 8-{[(2S)-2-hydroxypropyl]amino}-3,7-dimethyl-1-{[4-(trifluoromethyl)phenyl]methyl}-2,3,6,7-tetrahydro-1H-purine-2,6-dione] it is 5000 to 10000 nM; for `Cn1c(NCCC(=O)O)nc2c1c(=O)n(Cc1ccc(Cl)c(Cl)c1)c(=O)n2C` [Example 37, 3-({1-[(3,4-dichlorophenyl)methyl]-3,7-dimethyl-2,6-dioxo-2,3,6,7-tetrahydro-1H-purin-8-yl}amino)propanoic acid] it is 10 to 1000 nM.
